# Test results published in patent US12065442B2, “Tropomyosin receptor kinase (TRK) degradation compounds and methods of use” (Cullgen (Shanghai), Inc., priority 2018, dated 2024).
# “Also recorded” adds a separate entry of the source. Where two headings read alike, the source gives them in different places.
# Tests used:
# TPM3-TRKA fusion protein [1] = molecular target: T1, TPM3-TRKA fusion protein (Homo sapiens, UniProt P04629+P06753+Q96SW2); test: Immunoblotting of TPM3-TRKA fusion protein in KM12 cells; assay type: cell-based; parameters: The resulted chimeric proteins always retain the kinase domain of TRK proteins; TPM3 (N-terminal fusion partner, natural gene fusion); endogenous in cells; host or cells: KM12 colon cancer cells
# T1 sequence (P06753+P04629 fused): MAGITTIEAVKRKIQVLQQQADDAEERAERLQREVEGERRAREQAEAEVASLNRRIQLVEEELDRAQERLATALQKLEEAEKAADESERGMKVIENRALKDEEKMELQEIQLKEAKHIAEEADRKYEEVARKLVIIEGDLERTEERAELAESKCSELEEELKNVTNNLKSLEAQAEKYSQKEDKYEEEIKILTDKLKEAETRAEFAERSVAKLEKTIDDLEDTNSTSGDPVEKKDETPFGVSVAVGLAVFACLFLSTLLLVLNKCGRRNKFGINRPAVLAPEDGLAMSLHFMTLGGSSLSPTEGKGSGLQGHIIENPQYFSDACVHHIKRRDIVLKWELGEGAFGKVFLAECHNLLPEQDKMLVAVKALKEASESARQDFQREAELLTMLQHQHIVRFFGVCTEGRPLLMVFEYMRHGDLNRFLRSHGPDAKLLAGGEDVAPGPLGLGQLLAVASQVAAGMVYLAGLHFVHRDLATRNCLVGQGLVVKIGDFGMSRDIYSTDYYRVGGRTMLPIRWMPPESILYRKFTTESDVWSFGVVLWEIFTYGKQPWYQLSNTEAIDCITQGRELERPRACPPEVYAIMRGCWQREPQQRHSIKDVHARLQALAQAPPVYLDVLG
# T1 sequence (Q96SW2 whole entry, the tested form may be a part): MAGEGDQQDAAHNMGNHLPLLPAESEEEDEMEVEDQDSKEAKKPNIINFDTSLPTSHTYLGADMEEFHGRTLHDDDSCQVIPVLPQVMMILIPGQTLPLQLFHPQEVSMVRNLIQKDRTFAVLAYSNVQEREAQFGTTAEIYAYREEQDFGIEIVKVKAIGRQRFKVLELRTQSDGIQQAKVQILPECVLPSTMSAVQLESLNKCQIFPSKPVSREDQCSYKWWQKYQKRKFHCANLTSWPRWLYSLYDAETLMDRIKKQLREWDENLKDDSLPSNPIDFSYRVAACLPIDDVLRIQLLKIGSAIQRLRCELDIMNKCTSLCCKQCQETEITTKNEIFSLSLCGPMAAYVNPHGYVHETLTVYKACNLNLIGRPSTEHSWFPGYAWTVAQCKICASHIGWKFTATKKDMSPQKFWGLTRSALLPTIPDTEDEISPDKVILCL
# T1 sequence (Q16531 whole entry partner, the tested form may be a part): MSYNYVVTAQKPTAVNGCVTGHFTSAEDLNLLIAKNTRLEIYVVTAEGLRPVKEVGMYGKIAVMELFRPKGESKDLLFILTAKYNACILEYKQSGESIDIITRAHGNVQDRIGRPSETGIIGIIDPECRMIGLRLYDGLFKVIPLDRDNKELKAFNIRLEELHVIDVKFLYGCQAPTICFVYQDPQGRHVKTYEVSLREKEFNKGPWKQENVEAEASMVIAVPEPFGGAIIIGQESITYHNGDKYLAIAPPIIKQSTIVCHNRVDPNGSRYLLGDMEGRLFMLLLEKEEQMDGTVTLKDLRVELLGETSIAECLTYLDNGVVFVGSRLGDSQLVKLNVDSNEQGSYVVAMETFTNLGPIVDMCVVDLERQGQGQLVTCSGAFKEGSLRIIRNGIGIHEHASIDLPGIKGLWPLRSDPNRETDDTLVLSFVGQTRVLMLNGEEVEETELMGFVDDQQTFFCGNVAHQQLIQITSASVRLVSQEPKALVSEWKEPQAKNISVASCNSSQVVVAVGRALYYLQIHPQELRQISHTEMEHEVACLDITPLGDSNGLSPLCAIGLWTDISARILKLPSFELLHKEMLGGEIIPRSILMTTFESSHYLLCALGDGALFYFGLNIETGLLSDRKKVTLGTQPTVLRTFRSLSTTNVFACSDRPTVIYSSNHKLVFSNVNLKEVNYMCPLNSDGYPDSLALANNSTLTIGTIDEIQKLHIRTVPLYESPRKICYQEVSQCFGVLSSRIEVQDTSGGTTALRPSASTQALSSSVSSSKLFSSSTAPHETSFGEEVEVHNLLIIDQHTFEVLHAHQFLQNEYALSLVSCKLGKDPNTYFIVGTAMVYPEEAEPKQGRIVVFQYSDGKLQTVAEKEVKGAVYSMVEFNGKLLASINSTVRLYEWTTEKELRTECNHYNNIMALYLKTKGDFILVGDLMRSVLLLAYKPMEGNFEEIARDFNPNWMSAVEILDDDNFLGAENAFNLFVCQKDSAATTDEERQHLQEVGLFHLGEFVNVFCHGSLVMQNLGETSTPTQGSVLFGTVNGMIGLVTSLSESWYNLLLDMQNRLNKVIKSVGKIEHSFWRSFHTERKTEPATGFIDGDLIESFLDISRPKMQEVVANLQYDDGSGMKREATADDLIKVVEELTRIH
# Experimental: Specific exemplary bivalent compounds were characterized in KM12 cells. […] Cells were collected, lysed and subject to immunoblotting using an antibody specific to TRK proteins. GAPDH was included as the loading control. DMSO was used as the negative control.
# KM12 cells were treated with DMSO or indicated compounds at 100 nM for 16 hours.
# KM12 cells were treated with CPD-027, CPD-053, and CPD-060 at 100 nM for indicated incubation time. […]
# KM12 or HEL cells were treated with a dose range of compound TR-123 or TR-123-negative. The latter lost binding to cereblon (CRBN) due to a chemical modification.
# KM12 or HEL cells were treated with a single dose of compound TR-123 or combination with MG-132, Bortezomib, MLN4924 or Pomalidomide. […]
# (§1) Cultured cells were washed with cold PBS once and lysed in cold RIPA buffer supplemented with protease inhibitors and phosphatase inhibitors (Beyotime Biotechnology). The solutions were then incubated at 4° C. for 30 minutes with gentle agitation to fully lyse cells. For tumor tissues, tumors were cut into small pieces, milled with cold RIPA buffer using a mechanical homogenizer and lysed for 1 hour at 4° C. Cell lysates were centrifuged at 13,000 rpm for 10 minutes at 4° C. and pellets were discarded. Total protein concentrations in the lysates were determined by BCA assays (Beyotime Biotechnology). Cell lysates were mixed with Laemmli loading buffer to 1× and heated at 99° C. for 5 min. Proteins were resolved on SDS-PAGE and visualized by chemiluminescence. Images were taken by a ChemiDoc MP Imaging system (Bio-Rad). Protein bands were quantitated using the software provided by Bio-Rad.
# KRAS-mutant H358 cells = test: Cell viability assay (CellTiter-Glo) in H358 cells; assay type: cell-based; details: 1000 nM, 8-point 3-fold serial dilution, 3 days (FIG. 4B)
# Experimental: The kinase activity of TRK is known to play important roles in tumors expressing TRK-fusion proteins, as TRK kinase inhibitors compromise cell proliferation, survival, and induce marked clinical responses (Amatu et al., 2016; Drilon et al., 2018; Drilon et al., 2017; Khotskaya et al., 2017). […] Three days after treatment, cell viability was determined using the CellTiter-Glo kit following manufacturer's instructions. Cell viability was normalized to the mean values of 3 replicates of untreated cells. Dose-dependent response was analyzed following the least-squares non-linear regression method using the GraphPad Prism 5.0 software. Each data point in the figure represents the mean values of three technical replicates±standard deviation. […] More specifically, all bivalent compounds that had IC50 values smaller than 1000 nM in KM12 cells induced degradation of TPM3-TRKA (FIG. 1 and Table 2-4). […]
# Cells were seeded at a density of 5000 cells per well in 96-well assay plates and treated with test compounds following a 12-point 2-fold serial dilution or a 8-point 3-fold dilution. Three days later, cell viability was determined using the CellTiter-Glo assay kit (Promega) according to the manufacturer's instructions. The dose-response curves were determined and IC50 values were calculated using the GraphPad Prism software following a nonlinear regression (least squares fit) method.
# TPM3-TRKA fusion protein [2] = molecular target: T1, TPM3-TRKA fusion protein; test: Immunoblotting of TPM3-TRKA in KM12 subcutaneous xenograft tumors; assay type: in vivo, Athymic nude mice; parameters: The resulted chimeric proteins always retain the kinase domain of TRK proteins; TPM3 (N-terminal fusion partner, natural gene fusion); from tissue; host or cells: KM12 subcutaneous xenograft tumors in athymic nude mice
# Experimental: In addition to cultured cells, athymic nude mice bearing KM12 subcutaneous xenograft tumors at the right flank were intraperitoneally treated with 10, 20, or 50 mg/kg CPD-053, CPD-027, or CPD-060. Four hours after drug administration, animals were sacrificed for immunoblotting of TPM3-TPKA in homogenized xenograft tumor masses. The label “a” or “b” represents two different samples of the same xenograft tumor.
# Athymic nude mice bearing KM12 subcutaneous xenograft tumors at the right flank were intraperitoneally treated with 10, 20, or 50 mg/kg CPD-053, CPD-027, or CPD-060, as indicated in FIG. 3. Four hours after drug administration, animals were sacrificed for immunoblotting of TPM3-TPKA in homogenized xenograft tumor chunks. The label “a” or “b” represents two different chunks of the same xenograft tumor.
# Athymic nude mice bearing KM12 subcutaneous xenograft tumors at the right flank were intraperitoneally or orally treated with bivalent compounds at indicated dose. Eight hours after drug administration, animals were sacrificed for immunoblotting of TPM3-TPKA in homogenized xenograft tumor samples.
# as §1
# (§2) All animal experiments were performed under protocols approved by the Institutional Animal Care and Use Committee (IACUC) of Cullgen. Athymic nude mice (male, 5-weeks old) received 5 million KM12 cells subcutaneously inoculated at the right flank site. Ten days following inoculation, tumors were approximately 500 mm3 in size. Tumor-bearing mice were treated intraperitoneally with vehicle or bivalent compounds at indicated doses. Tumor sizes and body weight of mice were measured every 2 days. In addition, immunoblotting assays were employed to assess the levels of TRKA fusion proteins in xenograft tumors around 500 mm^3 in size following drug administration. At indicated hours after drug administration, selected mice were sacrificed, tumors were resected. Small chunks of tumors were homogenized for immunoblotting of TPM3-TPKA and other proteins as indicated.
# KM12 cells = test: Cell viability assay (CellTiter-Glo) in KM12 cells; assay type: cell-based; details: for IC50: Homo sapiens, 72 h, KM12 cell viability, CellTiter-Glo, 3 days, read-out: IC50
# [3] = Body weight of xenograft-bearing mice (toxicity); assay type: in vivo, Athymic nude mice; details: 10-20 mg/kg qd or bid via oral gavage (FIG. 15B)
# Experimental: (§3) Athymic nude mice bearing KM12 subcutaneous xenograft tumors at the right flank were intraperitoneally treated with vehicle or 25 mg/kg CPD-060 once per day (qd), twice per day (bid), or once every two days (q2d). Tumor volumes were assessed every two days and expressed as length×width×width/2. Body weights of experimental mice were also measured to assess the toxicity of compounds.
# (§4) Athymic nude mice bearing KM12 subcutaneous xenograft tumors at the right flank were treated with vehicle, 10-20 mg/kg TR-181 or TR-198 once per day (qd), or twice per day (bid) via oral gavage. Tumor volumes were assessed every two days and expressed as length×width×width/2. Body weights of experimental mice were also measured to assess the toxicity of compounds.
# as §2
# [4] = system: monoiodoacetate-induced osteoarthritis; test: Monoiodoacetate-induced osteoarthritis pain model in rats; assay type: in vivo, Sprague Dawley rats; details: 20 mg/kg i.p., single dose, 6 hours following treatment (FIG. 16A)
# [5] = system: KM12 subcutaneous xenograft tumors; test: KM12 subcutaneous xenograft tumor growth study; assay type: in vivo, Athymic nude mice; details: 10-20 mg/kg qd or bid via oral gavage (FIG. 15A)
# Experimental: as §3, §4, §2
# [6] = system: monoiodoacetate-induced osteoarthritis; test: Monoiodoacetate-induced osteoarthritis pain model in guinea pigs; assay type: in vivo; details: 20 mg/kg i.p., single dose, 6 hours following treatment (FIG. 16B)
Structure (SMILES),time after adding compound at which significant degradation of TPM3-TRKA was detected (TPM3-TRKA fusion protein [1]; 100 nM (FIG. 2)) [min],"TPM3-TRKA protein levels (TPM3-TRKA fusion protein [1]; 100 nM, 16 hours (FIG. 1A-1C))","TPM3-TRKA protein levels, time course (TPM3-TRKA fusion protein [1]; 100 nM, indicated incubation time (FIG. 2))",viability of H358 cells (KRAS-mutant H358 cells),"TPM3-TRKA protein levels in KM12 subcutaneous xenograft tumors (TPM3-TRKA fusion protein [2]; 10, 20, or 50 mg/kg intraperitoneally, single dose, four hours after administration (FIG. 3))","viability of KM12 cells (KM12 cells; 500 nM, 12-point 2-fold serial dilution, 3 days (FIG. 4A))","viability of KM12 cells (KM12 cells; 1000 nM, 8-point 3-fold serial dilution, 3 days (FIG. 4B))",IC50 (KM12 cells; Table 2) [nM],body weight [3],analgesic activity (percentage of weight born on the injured limb) [4],growth of KM12 subcutaneous xenograft tumors [5],"TPM3-TRKA degradation in KM12 subcutaneous tumors (TPM3-TRKA fusion protein [2]; intraperitoneal or oral administration, eight hours after administration (FIG. 10))",IC50 (KM12 cells; Table 3) [nM],analgesic activity (percentage of weight born on the injured limb) [6]
"O=C1CCC(N2C(=O)c3cccc(NCCCC(=O)N4CCN(c5ccc(C(=O)Nc6n[nH]c7ccc(Cc8cc(F)cc(F)c8)cc67)c(NC6CCOCC6)c5)CC4)c3C2=O)C(=O)N1 (centres unmarked) [CPD-053, N-(5-(3,5-Difluorobenzyl)-1H-indazol-3-yl)-4-(4-(4-((2-(2,6-dioxopiperidin-3-yl)-1,3-dioxoisoindolin-4-yl)amino)butanoyl)piperazin-1-yl)-2-((tetrahydro-2H-pyran-4-yl)amino)benzamide]",15,particularly effective in reducing TPM3-TRKA protein levels,rapidly reduced TPM3-TRKA protein levels,did not affect cell viability,significantly reducing TPM3-TRKA protein levels,inhibited the viability; also recorded: dose-dependently suppressed viability,significantly inhibited the viability,1.5,–,–,–,–,–,–
"O=C1CCC(N2C(=O)c3ccc(NCCN4CCN(c5cccc(-c6cnc7ccc(N8CCC[C@@H]8c8cccc(F)c8)nn67)n5)CC4)cc3C2=O)C(=O)N1 (stereo partly drawn) [TR-181, 2-(2,6-dioxopiperidin-3-yl)-5-((2-(4-(6-(6-((R)-2-(3-fluorophenyl)pyrrolidin-1-yl)imidazo[1,2-b]pyridazin-3-yl)pyridin-2-yl)piperazin-1-yl)ethyl)amino)isoindoline-1,3-dione]",–,–,–,–,–,–,–,–,without inducing substantial weight losses,significant analgesic activity,significant in vivo anti-tumor activity; also recorded: significantly repressed the growth,exhibited the activities to induce TPM3-TRKA degradation,3.4,significant analgesic activity
